Experimental data: ChEMBL document CHEMBL2074113, “Interaction of human organic anion transporters 2 and 4 with organic anion transport inhibitors” (J Pharmacol Exp Ther, 2002)

Tests used:
[1] = target: T1, Solute carrier family 22 member 7 (Homo sapiens, UniProt Q9Y694); assay: TP_TRANSPORTER: inhibition of PGF2alpha uptake in OAT2-expressing S2 cells; assay type: functional, cell-based; settings: for Activity: s2
T1 sequence (Q9Y694 whole entry): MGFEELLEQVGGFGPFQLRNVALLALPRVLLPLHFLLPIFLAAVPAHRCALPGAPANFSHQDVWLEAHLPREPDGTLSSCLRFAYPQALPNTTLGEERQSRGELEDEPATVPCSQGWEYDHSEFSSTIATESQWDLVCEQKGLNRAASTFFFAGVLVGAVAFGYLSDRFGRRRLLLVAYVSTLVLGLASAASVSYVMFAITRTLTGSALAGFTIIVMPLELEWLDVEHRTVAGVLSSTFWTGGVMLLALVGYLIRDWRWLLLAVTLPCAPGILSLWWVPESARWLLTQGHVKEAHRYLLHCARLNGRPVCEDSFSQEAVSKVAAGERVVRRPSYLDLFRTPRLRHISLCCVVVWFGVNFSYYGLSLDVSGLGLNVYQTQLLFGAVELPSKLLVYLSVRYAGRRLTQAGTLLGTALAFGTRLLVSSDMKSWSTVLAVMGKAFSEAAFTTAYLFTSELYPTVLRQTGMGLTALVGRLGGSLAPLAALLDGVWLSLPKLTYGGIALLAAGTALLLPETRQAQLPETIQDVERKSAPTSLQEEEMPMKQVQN

[2] = target: T2, Solute carrier family 22 member 11 (Homo sapiens, UniProt Q9NSA0); assay: TP_TRANSPORTER: inhibition of E1S uptake in OAT4-expressing S2 cells; assay type: functional, cell-based
T2 sequence (Q9NSA0 whole entry): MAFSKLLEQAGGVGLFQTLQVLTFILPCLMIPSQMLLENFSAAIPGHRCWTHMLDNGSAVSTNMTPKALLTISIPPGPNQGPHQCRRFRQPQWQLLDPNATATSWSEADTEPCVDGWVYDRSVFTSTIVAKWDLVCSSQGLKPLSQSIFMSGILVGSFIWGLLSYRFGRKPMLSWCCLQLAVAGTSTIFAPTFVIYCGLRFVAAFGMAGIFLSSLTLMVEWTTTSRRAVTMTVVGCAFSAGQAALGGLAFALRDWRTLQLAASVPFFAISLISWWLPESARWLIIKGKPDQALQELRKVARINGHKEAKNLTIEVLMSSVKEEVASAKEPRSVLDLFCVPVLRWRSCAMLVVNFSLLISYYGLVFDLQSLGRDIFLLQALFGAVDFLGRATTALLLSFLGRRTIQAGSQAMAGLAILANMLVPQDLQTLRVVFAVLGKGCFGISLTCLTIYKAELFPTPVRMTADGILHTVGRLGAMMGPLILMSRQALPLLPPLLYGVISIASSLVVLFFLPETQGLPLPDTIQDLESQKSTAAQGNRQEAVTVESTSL

Row | Compound | Activity [1] | Ki [2] [µM] | Ki [1] [µM]
1 | O=C(O)CCNC(=O)c1ccccc1 [BETAMIPRON] | is not an inhibitor [-] | 502 | 
2 | CCCN(CCC)S(=O)(=O)c1ccc(C(=O)O)cc1 [PROBENECID] |  |  | 766
3 | CCCn1c(=O)c2[nH]c(C34CC5CC(CC3C5)C4)nc2n(CCC)c1=O [ROLOFYLLINE] | is not an inhibitor [-] | 20.7 | 
4 | CC1(C)C[C@@H]1C(=O)N/C(=C\CCCCSC[C@H](N)C(=O)O)C(=O)O [CILASTATIN] | is not an inhibitor [-] |  | 
